Source: US8039501B2, “Synephrine derivatives useful as anti-inflammatory agents” (Universiteit Gent, priority 2005, dated 2011)

Legend:
MG63b = experiment: Q-PCR gene expression in osteosarcoma cell-line MG63b; assay type: cell-based, human; details: 10 μM
Experimental: CpdA was synthesized as described previously. […] They were sacrificed and livers were isolated. […] Gene expression of HPRT was used for normalization. […] Gene expression of HPRT was used for normalization. […] Gene expression of HPRT was used for normalization. Statistical significance was determined by one way anova. […] Gene expression of HPRT was used for normalization. […] Gene expression of HPRT was used for normalization. Statistical significance was determined by one way anova. […] Statistical significance was determined with a Kruskal-Wallis test.

AP1 = experiment: EMSA of AP1 DNA binding in MCF7 cells; assay type: cell-based, human; details: FIG. 7B
Experimental: For the EMSA, the MCF7 cells were pre-treated with varying concentrations of CpdA (10, 1, 0.1, 0.01, and 0.001 μM) and DEX (0.1 μM) for two hours and subsequently TNF-induced or non-TNF-induced during 30 min at 2000 IU/ml. After the induction period, nuclear extracts were examined in EMSA assays. Cells were washed with ice-cold PBS, scraped off, and pelleted in 15 ml of PBS by centrifugation for 5 min at 2600 rpm at 4° C. and lysed for 30 minutes at 4° C. in Totex buffer (20 mM HEPES (pH 7.9), 350 mM NaCl, 1 mM MgCl, 0.5 mM EDTA, 0.1 mM EGTA, 5 mM DTT, 20% glycerol, 1% NP-40, 0.1% PMSF, 1% aprotinin (4 mg/ml leupeptin). Supernatants from a 4000-rpm 10-min centrifugation were collected, aliquoted and stored at −20° C. until further use. Radiolabelled oligonucleotides that correspond to a consensus κB DNA-binding element of the IL-6 promoter, and of activating protein 1 (AP-1) DNA target-were used for appropriate EMSA's. These oligonucleotides of about 25 nucleotides comprise centrally the transcription factor binding motif. […] The samples were analyzed by electrophoresis on 6% native polyacrylamide gels. […] Visualization and quantitation of radioactive signals was carried out by a Phosphorlmager and scanned using a bioimaging analyzer (Personal Molecular Imager® FX Bio-Rad). […]

[1] = Serum ELISA of osteoclast and osteoblast markers in DBA/1 mice; details: 300 μg daily, 8 days
From the text: DBA/1 mice—Male 8- to 12-wk-old DBA/1 mice were purchased from Janvier and housed following institutional guidelines. All animal procedures were approved by the institutional animal care and ethics committee. […] The human IL-6 and IL-8 cytoset were purchased from BioSource International, Inc. For the detection of TRAP5b in DBA/1 mice serum we used the Mouse TRAP Assay, purchased from Immunodiagnostic systems limited. The osteocalcin EIA kit was purchased from Biomedical Technologies, Inc. All assays were performed according to the manufacturer's instructions.

NF-κB = experiment: EMSA of NF-κB DNA binding in Namalwa B cells; assay type: cell-based, human; details: 10, 0.1, 0.01, 0.001 μM, TNF 2000 IU/ml, FIG. 8B

## CNCC(Cl)c1ccc(OC(C)=O)cc1.Cl (stereo not shown) [CpdA, 2-(4-acetoxyphenyl)-2-chloro-N-methyl-ethylammonium chloride]
MG63b; 24 hours, FIG. 14B
  Expression of OPG: does not down-regulate the expression of OPG
  Expression of cathepsin K: does not stimulate the expression of cathepsin K
MG63b; TNF 2000 U/ml 6 hours, FIG. 14A
  Expression of pro-inflammatory mediators (anti-inflammatory effect): anti-inflammatory effect
AP1
  DNA-binding of transcription factor AP1 (EMSA): not affected
[1]; FIG. 21A
  Amount of active osteoclasts (TRAP5b) in serum: does not alter the amount of active osteoclasts (TRAP5b)
[1]; FIG. 21B
  Osteocalcin levels in mouse serum: does not significantly alter the osteocalcin levels in mouse serum
NF-κB
  NF-κB binding to kB DNA sequence (EMSA): inhibits NF-κB binding to kB DNA sequence
